Results taken from patent US10869931B2, “Polyethylene glycol-modified angiogenesis inhibitor HM-1 and application thereof” (NANJING ANJI BIOLOGICAL TECHNOLOGY CO.,LTD, priority 2016, dated 2020).
Marks after values point to notes of the source that are not given here. Where no end group is shown, it is not given here.

Key:
Liver cancer tumor cells = experiment: MTT proliferation inhibition, liver cancer cells; format: cell-based, human; set-up: concentration or dose not given beside the values; conditions: 48 h
Experimental: (§1) The activity of mPEG-HM-1 to inhibit the growth of various tumor cells was examined by MTT assay. The tumor cells were cultured to a concentration of 90% or more in a 37° C., 5% CO2 incubator and collected by trypsinization. The cells were resuspended in the culture medium and counted under a microscope to adjust the cell concentration to 2×10^4 cells/mL, the cell suspension was inoculated into a 96-well plate at 100 μL/well and incubated overnight at 37° C. in a 5% CO2 incubator. mPEG-HM-1 was diluted with the culture solution to each predetermined concentration. Docetaxel is diluted to the final concentration with the culture medium. After the cells were fully attached, each dilution was added to a 96-well plate (100 μL/well). The mPEG-HM-1 dilution was added as a drug-administered group, and docetaxel was added as a positive control group, and a culture solution without any drug was used as a negative control group. Incubate for 48 h at 37° C. in a 5% CO2 incubator. 5 mg/mL of MTT was added to a 96-well plate at 20 μL per well, and incubation was continued for 4 hours. The medium was aspirated, dissolved in 150 μL of DMSO per well, and gently mixed by shaking for 10 min. The absorbance was measured at a measurement wavelength of 570 nm and a reference wavelength of 630 nm using a microplate reader, and the rate of growth inhibition (proliferation inhibition, PI) was calculated. The formula is as follows: PI (%)=1−administration group/negative group
(§2) The test was repeated 3 times independently, and the results obtained by the test were expressed as mean±SD, and the test results are shown in Table 15 to Table 18.

[1] = tested on: Gastric cancer tumor cells; experiment: MTT proliferation inhibition, gastric cancer cells; format: cell-based, human; set-up: concentration or dose not given beside the values; conditions: 48 h
Experimental: as §1, §2

[2] = tested on: Uterine cancer tumor cells; experiment: MTT proliferation inhibition, uterine cancer cells; format: cell-based, human; set-up: concentration or dose not given beside the values; conditions: 48 h
Experimental: as §1, §2

[3] = tested on: human retinal vascular endothelial cells (HRCEC); experiment: MTT proliferation of human retinal vascular endothelial cells; format: cell-based; conditions: 48 h; for Inhibition rate: HRCEC proliferation; for A570 nm-A630 nm: HRCEC, MTT
Experimental: The activity of the angiogenesis inhibitor polypeptide to inhibit proliferation of human retinal vascular endothelial cells was examined by MTT assay. HRCEC cells were cultured in a 37° C., 5% CO2 incubator to a density of 90% or more, and collected by trypsinization. The cells were resuspended in the culture medium and counted under a microscope to adjust the cell concentration to 3.0×10^4 cells/mL. The cell suspension was inoculated into a 96-well plate at 100 μL per well and cultured overnight at 37° C. in a 5% CO2 incubator. After the cells were completely adhered, the angiogenesis inhibitor polypeptide was added as the administration group, and Avastin was used as the positive control group, and the culture media without any drug was used as a blank control group, and the culture media were diluted to each predetermined concentration. Each dilution was separately added to a 96-well plate at 100 μL per well and incubated for 48 h at 37° C. in a 5% CO2 incubator. 20 μL of 5 mg/mL MTT was added to each well of a 96-well plate and incubation was continued for 4 h. The medium was aspirated and dissolved in 100 μL of DMSO per well. […] The formula is as follows: PI (%)=1−administration group/negative group
The test was repeated 3 times independently. The results obtained by the test were expressed as mean±SD, and a statistical T test was performed. *P<0.05 was a significant difference, and **P<0.01 was a very significant difference.

[4] = tested on: choroidal neovascularization in BN rats; experiment: Laser-induced choroidal neovascularization in BN rats (FFA); format: in vivo, rat
Experimental: 6-8 weeks old male BN rats were anesthetized with 846 compound anesthetic 0.5 mL/kg administered intraperitoneally. The eye drops of compound tropamide eyes were used 5 minutes before laser photocoagulation, and the pupils of both eyes were fully scattered. Fix animals, with the aid of −53.00 D contact lens, around the optic disc and along the same distance from the optic disc 2PD, the laser beam photocoagulation were performed to make a total of 8 photo-condensation spots, with laser wavelength of 647.1 nm, power of 350 mW, photocoagulation spot diameter and time were 50 μm and 0.05 s, respectively. Immediately after photocoagulation, fundus photography was performed. FFA, histopathology and transmission electron microscopy were performed at 3, 7, 14, 21, and 28 days after photocoagulation.
It was confirmed by fundus photography and FFA examination that the fluorescein leakage of photocoagulation peaked on the 21st day after photocoagulation, and histopathological examination was performed at the same time. […] A large number of neovascular vessels were seen, and red blood cells were visible in the lumen. Microscopically, capillary cells in the choroidal melanocytes were cohesively altered and endothelial cells aggregated.
Rats that were successfully modeled were randomly divided into groups of 5 rats each. They were labeled as negative control group, mPEG-SC-HM-1 treatment group, mPEG2-NHS-HM-1 treatment group, mPEG-ALD-HM-1 treatment group and mPEG-bALD-HM-1 treatment group, respectively. Saline, mPEG-HM-1 (see Table 53 for dosing) was administered intravitreally, once daily for 1 week. FFA examinations were performed 3 days, 7 days, 14 days, and 28 days after administration of the modified peptides.

[5] = tested on: retinal neovascular clusters in OIR C57/B16 mice; experiment: Retinal blood vessels in OIR mice; format: in vivo, mouse; conditions: for Neovascular clusters area: retina evaluated on day 17; for Inhibition rate: neovascular clusters area vs control, day 17
Text: Establishment of the OIR model: Exposure of young mouse and their mothers to 75% hyperoxic environment from day 7 to day 12 after birth of C57/B16 mice caused rapid disappearance of capillaries in the central retina. Upon returning to the indoor air on the 12th day, the retinal blood vessels, upon exposing to hyperoxia, rapidly disappeared, causing extensive abnormal neovascularization, and the central portion of the retina remained largely avascular for a long time. After the blood vessels disappeared completely, on the 13th day, physiological saline (negative control group), mPEG-SC-HM-1, mPEG2-NHS-HM-1, mPEG-ALD10k-HM-1, and mPEG-bALD-HM-1, were administered by intravitreal injection and retinal vessels were evaluated on day 17 (to label unclosed vessels, […] of Texas Red-labeled tomato lectin was injected into the left ventricle and circulated for 5 min).

[6] = in vivo

mPEG-bALD5k-Arg-Gly-Ala-Asp-Arg-Ala-Gly-Gly-Gly-Gly-Arg-Gly-Asp ({mPEG‑bALD 5 kDa}-RGADRAGGGGRGD) [mPEG-bALD5k-HM-1]
rate of growth inhibition (Liver cancer tumor cells): 55.63 ± 10.27%
rate of growth inhibition [1]: 56.87 ± 14.41%
rate of growth inhibition [2]: 65.46 ± 18.52%
Inhibition rate ([3]; 20 μg/mL): 41.82%*
A570 nm-A630 nm ([3]; 20 μg/mL): 0.7747 ± 0.08752
Inhibition rate ([3]; 40 μg/mL): 50.48%**
A570 nm-A630 nm ([3]; 40 μg/mL): 0.6594 ± 0.08003
Inhibition rate ([3]; 60 μg/mL): 62.77%*
A570 nm-A630 nm ([3]; 60 μg/mL): 04958 ± 0.07902
CNV Incidence rate ([4]; Day 3 after administration, 25 μg intravitreally once daily for 1 week (Table 53)): 55.29%
leakage Spots # ([4]; Day 3 after administration, 25 μg intravitreally once daily for 1 week (Table 53), total spots 290-296 by table): 162
CNV Incidence rate ([4]; Day 7, 25 μg intravitreally once daily for 1 week (Table 53)): 52.43%
leakage Spots # ([4]; Day 7, 25 μg intravitreally once daily for 1 week (Table 53), total spots 182-188 by table): 97
CNV Incidence rate ([4]; Day 14, 25 μg intravitreally once daily for 1 week (Table 53)): 47.10%
leakage Spots # ([4]; Day 14, 25 μg intravitreally once daily for 1 week (Table 53), total spots 132-138 by table): 65
CNV Incidence rate ([4]; Day 28, 25 μg intravitreally once daily for 1 week (Table 53)): 46.38%
leakage Spots # ([4]; Day 28, 25 μg intravitreally once daily for 1 week (Table 53), total spots 67-71 by table): 32
Neovascular clusters area ([5]; 25 μg intravitreal injection on day 13): 0.108 ± 0.008 mm^2
Inhibition rate ([5]; 25 μg intravitreal): 51.17%**
AUC0-∞ [6]: 4782.29 ± 11.37 mg/L/h
CL [6]: 0.83 ± 0.162 mL/min/kg
MRT0-∞ [6]: 8.46 ± 6.95 h
T1/2β (half-life) [6]: 9.35 ± 0.12 h

mPEG2-NHS40k-Arg-Gly-Ala-Asp-Arg-Ala-Gly-Gly-Gly-Gly-Arg-Gly-Asp ({mPEG2‑NHS 40 kDa}-RGADRAGGGGRGD) [mPEG2-NHS40k-HM-1]
rate of growth inhibition (Liver cancer tumor cells): 53.77 ± 13.64%
rate of growth inhibition [1]: 56.39 ± 11.58%
rate of growth inhibition [2]: 62.25 ± 20.39%
Inhibition rate ([3]; 80 μg/mL): 42.52%*
A570 nm-A630 nm ([3]; 80 μg/mL): 0.7598 ± 0.07143
Inhibition rate ([3]; 100 μg/mL): 51.86%**
A570 nm-A630 nm ([3]; 100 μg/mL): 0.6363 ± 0.07532
Inhibition rate ([3]; 120 μg/mL): 62.78%*
A570 nm-A630 nm ([3]; 120 μg/mL): 0.4920 ± 0.07953
CNV Incidence rate ([4]; Day 3 after administration, 200 μg intravitreally once daily for 1 week (Table 53)): 51.02%
leakage Spots # ([4]; Day 3 after administration, 200 μg intravitreally once daily for 1 week (Table 53), total spots 290-296 by table): 150
CNV Incidence rate ([4]; Day 7, 200 μg intravitreally once daily for 1 week (Table 53)): 51.10%
leakage Spots # ([4]; Day 7, 200 μg intravitreally once daily for 1 week (Table 53), total spots 182-188 by table): 93
CNV Incidence rate ([4]; Day 14, 200 μg intravitreally once daily for 1 week (Table 53)): 44.53%
leakage Spots # ([4]; Day 14, 200 μg intravitreally once daily for 1 week (Table 53), total spots 132-138 by table): 61
CNV Incidence rate ([4]; Day 28, 200 μg intravitreally once daily for 1 week (Table 53)): 41.18%
leakage Spots # ([4]; Day 28, 200 μg intravitreally once daily for 1 week (Table 53), total spots 67-71 by table): 28
Neovascular clusters area ([5]; 200 μg intravitreal injection on day 13): 0.120 ± 0.008 mm^2
Inhibition rate ([5]; 200 μg intravitreal): 45.92%*
AUC0-∞ [6]: 4579.47 ± 13.52 mg/L/h
CL [6]: 0.11 ± 0.0883 mL/min/kg
MRT0-∞ [6]: 15.27 ± 9.37 h
T1/2β (half-life) [6]: 42.25 ± 0.27 h

mPEG-bALD20k-Arg-Gly-Ala-Asp-Arg-Ala-Gly-Gly-Gly-Gly-Arg-Gly-Asp ({mPEG‑bALD 20 kDa}-RGADRAGGGGRGD) [mPEG-bALD20k-HM-1]
rate of growth inhibition (Liver cancer tumor cells): 62.49 ± 16.14%
rate of growth inhibition [1]: 70.21 ± 18.32%
rate of growth inhibition [2]: 75.97 ± 22.67%
Inhibition rate ([3]; 60 μg/mL): 47.53%*
A570 nm-A630 nm ([3]; 60 μg/mL): 0.6987 ± 0.07838
Inhibition rate ([3]; 80 μg/mL): 57.32%**
A570 nm-A630 nm ([3]; 80 μg/mL): 0.5683 ± 0.07055
Inhibition rate ([3]; 100 μg/mL): 69.12%*
A570 nm-A630 nm ([3]; 100 μg/mL): 0.4112 ± 0.07405
CNV Incidence rate ([4]; Day 3 after administration, 100 μg intravitreally once daily for 1 week (Table 53)): 51.54%
leakage Spots # ([4]; Day 3 after administration, 100 μg intravitreally once daily for 1 week (Table 53), total spots 290-296 by table): 151
CNV Incidence rate ([4]; Day 7, 100 μg intravitreally once daily for 1 week (Table 53)): 49.19%
leakage Spots # ([4]; Day 7, 100 μg intravitreally once daily for 1 week (Table 53), total spots 182-188 by table): 91
CNV Incidence rate ([4]; Day 14, 100 μg intravitreally once daily for 1 week (Table 53)): 45.65%
leakage Spots # ([4]; Day 14, 100 μg intravitreally once daily for 1 week (Table 53), total spots 132-138 by table): 63
CNV Incidence rate ([4]; Day 28, 100 μg intravitreally once daily for 1 week (Table 53)): 40.58%
leakage Spots # ([4]; Day 28, 100 μg intravitreally once daily for 1 week (Table 53), total spots 67-71 by table): 28
Neovascular clusters area ([5]; 100 μg intravitreal injection on day 13): 0.097 ± 0.011 mm^2
Inhibition rate ([5]; 100 μg intravitreal): 56.22%**
AUC0-∞ [6]: 5872.56 ± 8.72 mg/L/h
CL [6]: 0.212 ± 0.155 mL/min/kg
MRT0-∞ [6]: 18.32 ± 2.99 h
T1/2β (half-life) [6]: 22.94 ± 0.24 h
